From patent US6878690B2, “Compounds and methods” (PharmAxis Pty Ltd., priority 2000, dated 2005)

Tests used:
[1] = tested on: myelin basic protein (MBP)-specific T lymphocyte cell lines; test: Inhibition of T-lymphocyte migration across rat brain endothelial cell layer (Transwell, 51Cr-labelled cells); format: cell-based, Lewis rats; conditions: test substance 10 mmolar in upper well; 6 hours; in comparison with the negative control (glucose 6-phosphate); triplicate
Description: Vascular endothelial cells were isolated from rat brain capillaries taken from 6 to 8 week old Lewis rats according to the method of Risau et al. (Risau, W., Engelhardt, B., and Wekerle, H., (1990). Journal of Cell Biology, vol 110, p 1757-1766, which is incorporated herein by reference). Colonies of endothelial cells were purified from astroglial cells and pericytes by a Thy1.1-mediated complement lysis also after the method of Risau et al. (vide supra). The endothelial colonies, according to methods known in the art, were grown in Dulbecco's minimum essential medium (DMEM) high glucose supplemented, with 20% fetal calf serum (FCS), glutamine, pyruvate, nonessential amino acids, 4-(2-hydroxyethyl)-1-piperazine ethane sulfonic acid buffer (HEPES), kanamycin, amphotericin, heparin (all from Gibco) and 150 micrograms/ml endothelial growth supplement (Collaborative Biomedical Products). Upon reaching confluence, the endothelial cultures were washed with 0.2% EDTA in phosphate buffered saline (PBS), trypsinized (Trypsin-EDTA, 0.1% final concentration, Gibco), washed and again incubated with anti-Thy1.1 antibody for 40 minutes, washed and incubated with complement sufficient to lyse all Thy1.1+ cells (Behringwerke, AG, Marburg, Germany) at room temperature, washed and plated on matrigel-coated 6.5 mm Transwells, […] (Corning Costar Corporation, Cambridge, Mass.). The endothelial cell characteristics and confluence of the monolayer were checked by measuring the electrical resistance (World Precision Instruments, New Haven, U.S.A., model EVOM-G) and by staining with FITC-labeled phalloidin (Sigma). In order to study the effect of the agents of the present invention on T lymphocyte migration, myelin basic protein (MBP)-specific T lymphocyte cell lines were generated according to the method of Ben-Nun et al. (Ben-Nun, A., Wekerle, H. and Cohen, I. R., 1981). The rapid isolation of clonable antigen-specific T lymphocyte lines capable of mediating autoimmune encephalomyelitis. European Journal of Immunology. 1981, 11(3), 195-199; incorporated herein by reference) from the lymph nodes of Lewis rats that had been immunised with MBP in Freund's complete adjuvant. These cells were used for migration studies during the first 4 days of their propagation in IL-2 containing medium, following antigen (MBP) restimulation in the presence of antigen-presenting cells from irradiated spleen cells or thymocytes taken from normal Lewis rats. The antigen-activated T lymphocytes were radio-labelled with sodium chromate (^51Cr, 37 MBq/ml, Amersham, UK) for 30 minutes at 37° C. with occasional agitation, they were then washed three times with the DMEM culture medium and placed into the upper chamber of the Transwells at 5×10^5 cells in 100 microliters of migration medium. Test and control substance were included in the upper wells at final concentrations of 0.1, 1 and 10 mM. Cell migration was monitored by light microscopy in order to gauge progress of the experiment. […] The combined material was transferred into scintillation vials and the radioactivity of each tube determined by counting for 1 minute in a Packard Auto-Gamma 5650 (IL, USA) gamma counter. Each test and the control substance (glucose 6-phosphate) and no treatment were assessed in triplicate. […]

[2] = tested on: passively transferred adjuvant arthritis; test: Passively transferred adjuvant induced arthritis; format: in vivo, DA rats; conditions: 25 mg/kg/day, end of the one week treatment period, FIG. 1
Method: Male DA rats 8 to 10 week old were immunised with three 100 microliter injections of Complete Freund's Adjuvant (CFA) intradermally at the base of the tail. The CFA was prepared by mixing 8 mg/ml of Mycobacterium butyricum (Difco Laboratories, USA) that had been ground to a fine powder using a mortar and pestle, in 85% light mineral oil (Sigma, USA) and 15% mannide monooleate (Sigma) and emulsifying this suspension, one part in one part saline. Thus, the final emulsion contained 4 mg/ml of M. butyricum.
Ten days after immunisation the rats were euthanased and the spleens removed aseptically. A single cell suspension was prepared in the usual manner in mixed lymphocyte culture medium (MLC) (Dulbecco's Modified Eagle's Medium (DMEM) plus glucose, folic acid, L-asparagine, sodium pyruvate, HEPES, 2-mercapto ethanol, penicillin, streptomycin, neomycin and 10% fetal calf serum) by pushing the spleens through a stainless steel sieve. The cells were placed in culture in MLC medium with 2 micrograms/ml concanavalin A added such that the lymphocyte concentration was 2 million cells per milliliter. These cells were cultured aseptically at 37° C. in an atmosphere containing 5% carbon dioxide for 72 hours.
Groups of 4 or 5 DA rats, 6 to 8 weeks of age were anesthetised with diethyl ether and implanted subcutaneously on the flank with Alzet 2002 (2 week delivery) or 2001 (1 week delivery) mini-osmotic pumps (Alza Corp., Palo Alto Calif., USA). One treatment group received phosphoric acid mono-(6-propyl-3,4,5-trihydroxy-tetrahydro-pyran-2-ylmethyl) ester in the one week delivery Alzet 2001 mini-osmotic pumps. The drug was delivered at a dose of 25 mg/kg/day. The control group for this experiment received identical mini-osmotic pumps containing normal saline. In a second experiment another group of DA rats received ethyl (3,4,5-trihydroxy-6-phosphonooxymethyl-tetrahydro-pyran-2-yl)-acetic acid ester in the two week delivery Alzet 2002 mini-osmotic pumps. This drug was delivered at a dose of 37 mg/kg/day. Control animals for this group received saline delivered in identical mini-osmotic pumps. The pumps in each case were implanted subcutaneously on the flank of each animal. […]
After 5 to 8 days, a characteristic thickening and cutaneous hyperemia of the distal joints of the hind legs became clinically apparent in the saline control animals. Disease severity was evaluated and graded in each group by taking daily measurements of the mediolateral widths of both ankle joints. The data were expressed as the mean of the change (compared with width prior to cell injection) in mediolateral ankle width expressed in millimeters (±standard error of the mean).

`CCCC1OC(COP(=O)(O)O)C(O)C(O)C1O` (stereo not drawn) [phosphoric acid mono-(6-propyl-3,4,5-trihydroxy-tetrahydro-pyran-2-ylmethyl) ester] was tested, and the “% inhibition ± SEM” value [1] was 64 ± 4%, the “swelling in the affected joints of treated animals” value ([2]; one week Alzet 2001 pump subcutaneously, controls severe swelling) was “little swelling” and the “disease status of the treated versus the control animals” value ([2]; one week Alzet 2001 pump) was “highly statistically significant difference”.
